Measured values: patent US8802895B2, “Amide derivatives of benzene-sulfonanilide, pharmaceutical composition thereof and method for cancer treatment using the same” (Cleveland State University, priority 2010, dated 2014)
Like-named read-outs stand apart in the source and are kept apart here.

Experiments:
cells = test: Primary mechanism study: cell viability with compound #10 and 2-APB (FIG. 10); assay type: cell-based; conditions: 2-APB added two hours before compound #10; cell viability after 48 hours
Description: For the experiment, 2-APB was first added. […] The control cells were treated with same amount of DMSO to carry the drugs. The cell viability was evaluated after 48 hours.

SKBR-3 cells = test: MTT cell viability assay with SKBR-3 cells; assay type: cell-based; conditions: Homo sapiens, SK-BR-3
Description: SKBR-3 cells were obtained from ATCC (Rockville, Md.). […] Bovine serum was heat inactivated for 30 min in a 56° C. water bath before use. Cell cultures were grown at 37° C., in a humidified atmosphere of 5% CO2 in a Hereaus CO2 incubator. For all experiments, cells were seeded in 96 well plates with 5000 cells/well density.
Cells were grown in custom medium in 96-well, flat-bottomed plates for 24 h, and were exposed to various concentrations of nimesulide derivatives dissolved in DMSO (final concentration≦0.1%) in media for different time intervals. Controls received DMSO vehicle at a concentration equal to that in drug-treated cells. […] Supernatants were removed from the wells, and the reduced 3-(4,5-dimethylthiazol-2-yl)-2,5-diphenyl-2H-tetrazolium bromide dye was solubilized in 200 μl/well DMSO. Absorbance at 570 nm was determined on a plate reader.

[1] = SKBR-3 cells, cell viability, read-out: IC50

Structure (SMILES) | IC50 (SKBR-3 cells; [1]) | further results
NCCOB(c1ccccc1)c1ccccc1 [Compound 2-APB, 2-aminoethoxydiphenyl borate, reference compound] | – | rescue of cell death from compound #10 treatment (cell viability) (cells): can partially rescue the cell death from compound #10 treatment
COc1ccc(OC)c(COc2cc(NC(=O)c3ccc(I)cc3)ccc2N(C)S(C)(=O)=O)c1 [Compound #40, N-[3-(2,5-dimethoxyl-benzyloxy)-4-(methanesulfonyl-methyl-amino)-phenyl]-4-iodo-benzamide] | 1.8 ± 0.7 nM | –
COc1ccc(C(=O)Nc2ccc(N(C)S(C)(=O)=O)c(OCc3cc(OC)ccc3OC)c2)cc1 [Compound #41, N-[3-(2,5-dimethoxy-benzyloxy)-4-(methanesulfonyl-methyl-amino)-phenyl]-4-methoxy-benzamide] | 0.87 ± 0.33 nM | –
COc1ccc(OC)c(COc2cc(NC(=O)c3ccc(Br)cc3)ccc2N(C)S(C)(=O)=O)c1 [Compound #42, N-[3-(2,5-dimethoxy-benzyloxy)-4-(methanesulfonyl-methyl-amino)-phenyl]-4-bromobenzamide] | – | IC50 (SKBR-3 cells): 3.5 ± 1.9 nM
COc1ccc(OC)c(COc2cc(NC(=O)c3ccc4c(c3)OCO4)ccc2N(C)S(C)(=O)=O)c1 [Compound #43, N-[3-(2,5-dimethoxyl-benzyloxy)-4-(methanesulfonyl-methyl-amino)-phenyl]-1,3-benzodioxole-5-carboxamide] | – | IC50 (SKBR-3 cells): 7.5 ± 2.8 nM
COc1ccc(OC)c(COc2cc(NC(=O)c3ccc(OC)c(OC)c3)ccc2N(C)S(C)(=O)=O)c1 [Compound #44, N-[3-(2,5-dimethoxyl-benzyloxy)-4-(methanesulfonyl-methyl-amino)-phenyl]-3,4-dimethoxy-benzamide] | 2.6 ± 1.3 nM | –
COc1ccc(OC)c(COc2cc(NC(=O)c3ccc4ccccc4c3)ccc2N(C)S(C)(=O)=O)c1 [Compound #45, N-[3-(2,5-dimethoxyl-benzyloxy)-4-(methanesulfonyl-methyl-amino)-phenyl]-2-naphthalenecarboxamide] | 16.6 ± 7.7 nM | –
